Measured values reported in the supplement of paper PMC11451515.

Test system: P12-Ichikawa
Assay: cell viability relative to DMSO control; higher = less cytotoxic
Conditions: 48 h
How it was run: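 Library compounds in DMSO were pin-dosed in an 11-point threefold series (47 μM to 0.79 nM) onto leukemia cells in 1536-well plates (5 μl). Plates held 500 cells/well of NOMO1 or SEM or 1000 cells/well of P12-Ichikawa, each adapted for at least four passages in each medium. Luminescence was read with CellTiter-Glo One after 48 h at 37°C. Viability means the per-plate percentage relative to DMSO wells, using cell-free wells as background.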

[1] = HPLM + 10% dialyzed FBS, 0.000781 µM
[2] = HPLM + 10% dialyzed FBS, 0.00234 µM
[3] = HPLM + 10% dialyzed FBS, 0.00702 µM
[4] = HPLM + 10% dialyzed FBS, 0.0211 µM
[5] = HPLM + 10% dialyzed FBS, 0.0632 µM
[6] = HPLM + 10% dialyzed FBS, 0.19 µM
[7] = HPLM + 10% dialyzed FBS, 0.569 µM
[8] = HPLM + 10% dialyzed FBS, 1.71 µM
[9] = HPLM + 10% dialyzed FBS, 5.12 µM
[10] = HPLM + 10% dialyzed FBS, 15.4 µM
[11] = HPLM + 10% dialyzed FBS, 46.1 µM
[12] = RPMI 5 mM glucose + 10% FBS, 0.000781 µM
[13] = RPMI 5 mM glucose + 10% FBS, 0.00234 µM
[14] = RPMI 5 mM glucose + 10% FBS, 0.00702 µM
[15] = RPMI 5 mM glucose + 10% FBS, 0.0211 µM
[16] = RPMI 5 mM glucose + 10% FBS, 0.0632 µM
[17] = RPMI 5 mM glucose + 10% FBS, 0.19 µM
[18] = RPMI 5 mM glucose + 10% FBS, 0.569 µM
[19] = RPMI 5 mM glucose + 10% FBS, 1.71 µM
[20] = RPMI 5 mM glucose + 10% FBS, 5.12 µM
[21] = RPMI 5 mM glucose + 10% FBS, 15.4 µM
[22] = RPMI 5 mM glucose + 10% FBS, 46.1 µM
[23] = RPMI 5 mM glucose + 10% dialyzed FBS, 0.000781 µM
[24] = RPMI 5 mM glucose + 10% dialyzed FBS, 0.00234 µM
[25] = RPMI 5 mM glucose + 10% dialyzed FBS, 0.00702 µM
[26] = RPMI 5 mM glucose + 10% dialyzed FBS, 0.0211 µM
[27] = RPMI 5 mM glucose + 10% dialyzed FBS, 0.0632 µM
[28] = RPMI 5 mM glucose + 10% dialyzed FBS, 0.19 µM
[29] = RPMI 5 mM glucose + 10% dialyzed FBS, 0.569 µM
[30] = RPMI 5 mM glucose + 10% dialyzed FBS, 1.71 µM
[31] = RPMI 5 mM glucose + 10% dialyzed FBS, 5.12 µM
[32] = RPMI 5 mM glucose + 10% dialyzed FBS, 15.4 µM
[33] = RPMI 5 mM glucose + 10% dialyzed FBS, 46.1 µM

Structure (SMILES) | cell viability [1] [%] | cell viability [2] [%] | cell viability [3] [%] | cell viability [4] [%] | cell viability [5] [%] | cell viability [6] [%] | cell viability [7] [%] | cell viability [8] [%] | cell viability [9] [%] | cell viability [10] [%] | cell viability [11] [%] | cell viability [12] [%] | cell viability [13] [%] | cell viability [14] [%] | cell viability [15] [%] | cell viability [16] [%] | cell viability [17] [%] | cell viability [18] [%] | cell viability [19] [%] | cell viability [20] [%] | cell viability [21] [%] | cell viability [22] [%] | cell viability [23] [%] | cell viability [24] [%] | cell viability [25] [%] | cell viability [26] [%] | cell viability [27] [%] | cell viability [28] [%] | cell viability [29] [%] | cell viability [30] [%] | cell viability [31] [%] | cell viability [32] [%] | cell viability [33] [%]
Nc1nc(-c2nn(Cc3ccccc3F)c3ncccc23)nc(N)c1N1CCOCC1 | 92.3 | 100 | 105 | 111 | 111 | 112 | 110 | 109 | 109 | 107 | 95.9 | 93.1 | 97.9 | 98.8 | 116 | 107 | 112 | 110 | 109 | 107 | 111 | 107 | 86.1 | 101 | 100 | 108 | 104 | 92.1 | 107 | 101 | 104 | 103 | 87.3
Nc1ccccc1NC(=O)c1ccc(CNc2nccc(-c3cccnc3)n2)cc1 | 106 | 107 | 108 | 113 | 110 | 120 | 113 | 85.6 | 7.68 | 6.63 | 7 | 101 | 106 | 109 | 110 | 111 | 110 | 114 | 71.1 | 9.5 | 6.39 | 6.22 | 109 | 107 | 113 | 122 | 122 | 117 | 110 | 83 | 8.72 | 7.24 | 6.17
COc1cc(N2CCC(O)CC2)ccc1Nc1cc(Nc2ccccc2[S+](=O)([O-])C(C)C)c2cc[nH]c2n1 | 91.6 | 88.2 | 86 | 91.3 | 93 | 85.3 | 78.4 | 85.1 | 84.4 | 84.4 | 80.2 | 78.4 | 85.5 | 85.2 | 85.4 | 87.2 | 88 | 81.3 | 81.8 | 80.8 | 77.4 | 66.9 | 85 | 85.2 | 86.5 | 83.7 | 87.1 | 80.7 | 85 | 83.7 | 85.6 | 78.4 | 77.9
CC[C@]1(O)C[C@H]2CN(CCC3=C([NH]C4=C3C=CC=C4)[C@@](C2)(C(=O)OC)C5=CC6=C(C=C5OC)N(C=O)[C@H]7[C@](O)([C@H](OC(C)=O)[C@]8(CC)\C=C/C[N@@]9CC[C@]67[C@H]89)C(=O)OC)C1 | 118 | 117 | 119 | 82.3 | 21.6 | 17.7 | 11 | 10.2 | 11.3 | 9.28 | 8.54 | 115 | 109 | 112 | 75.1 | 19.5 | 15.9 | 9.98 | 8.03 | 8.69 | 8.09 | 6.94 | 105 | 108 | 110 | 106 | 35.6 | 34.6 | 20.5 | 12 | 12.1 | 12.8 | 12.6
O=C1CSC(=O)N1C(CCc1ccncc1)COc1ccc(-c2cccc([N+](=O)[O-])c2)cc1 (stereo unspecified) | 115 | 119 | 122 | 118 | 118 | 115 | 111 | 111 | 95.7 | 108 | 90.1 | 122 | 134 | 116 | 107 | 114 | 91.3 | 99.1 | 110 | 87.4 | 93.7 | 82.3 | – | – | – | – | – | – | – | – | – | – | –
CC1SC/2=C(C(O)=O)/C(=O)C3=CC(=C(C=C3N12)N4CCN(CC4)C\C5=C(C)\OC(=O)O5)F (stereo unspecified) | 134 | 122 | 121 | 124 | 125 | 123 | 119 | 117 | 113 | 112 | 102 | – | – | – | – | – | – | – | – | – | – | – | – | – | – | – | – | – | – | – | – | – | –
COC[C@H](NC(=O)c1cnc(C)s1)C(=O)N[C@@H](COC)C(=O)N[C@@H](Cc1ccccc1)C(=O)[C@@]1(C)CO1 | 96.6 | 99.8 | 98.3 | 95 | 105 | 69.8 | 4.41 | 3.23 | 1.91 | 1.12 | 2.28 | 89 | 98.2 | 99.8 | 96.3 | 89.8 | 78.5 | 3.57 | 2.76 | 1.79 | 1.04 | 1.83 | 90.8 | 93.5 | 94.3 | 95.7 | 87.4 | 58.1 | 3.41 | 2.83 | 1.67 | 0.842 | 1.82
C[C@H](NC(=O)C(=O)Nc1ccccc1C(C)(C)C)C(=O)N[C@@H](CC(=O)O)C(=O)COc1c(F)c(F)cc(F)c1F | 107 | 120 | 122 | 130 | 125 | 124 | 130 | 129 | 120 | 88.7 | 4.89 | 101 | 131 | 124 | 120 | 133 | 128 | 126 | 122 | 121 | 56.4 | 4.69 | 102 | 111 | 112 | 127 | 124 | 130 | 128 | 126 | 107 | 58.9 | 4.53
O=[N+]([O-])c1cn2c(n1)OC[C@@H](OCc1ccc(OC(F)(F)F)cc1)C2 | 124 | 126 | 121 | 120 | 120 | 111 | 113 | 111 | 112 | 118 | 110 | 124 | 125 | 138 | 141 | 131 | 132 | 127 | 118 | 105 | 111 | 121 | 120 | 116 | 111 | 126 | 115 | 113 | 113 | 100 | 101 | 109 | 107
O=C(Cc1cccc(OC(F)(F)F)c1)Nc1ccc(CCCCc2nnc(NC(=O)Cc3ccccn3)s2)nn1 | 120 | 118 | 126 | 112 | 115 | 107 | 101 | 99.4 | 103 | 91.7 | 95.8 | 121 | 113 | 121 | 115 | 103 | 95.6 | 83 | 83.2 | 71.2 | 77.8 | 76.5 | – | – | – | – | – | – | – | – | – | – | –
O=C1\C=C(/OC2=C1C=CC=C2C3=CC=CC=C3)N4CCOCC4 | 88.3 | 93 | 95.2 | 91.3 | 96.3 | 90.1 | 94.4 | 86.5 | 87.6 | 85.3 | 87.1 | 89.1 | 84.5 | 87.6 | 89.8 | 91.5 | 86 | 75.4 | 76.8 | 81.2 | 74.1 | 67.9 | 86.7 | 84.4 | 84.1 | 84.6 | 89.7 | 84.1 | 86 | 77.2 | 82.4 | 80.3 | 74.1
COCCOC(=O)C/1=C(C)/NC/2=C(C1C3=CC=CC(=C3)O)/C(=O)CC(C2)C4=C(OC)C=CC=C4 (stereo unspecified) | 94.3 | 97.9 | 102 | 105 | 110 | 100 | 106 | 105 | 91.5 | 86.7 | 26.8 | 103 | 102 | 104 | 112 | 118 | 110 | 113 | 101 | 96.3 | 89.5 | 54.1 | 94.8 | 97.9 | 91.7 | 104 | 101 | 104 | 101 | 94.7 | 87.6 | 88.1 | 46.8
Fc1cc(-c2cccc3ncc(-c4cnn(C5CCNCC5)c4)nc23)cc(F)c1CN1CCOCC1 | 119 | 113 | 122 | 115 | 123 | 118 | 108 | 113 | 68.8 | 57.7 | 28.9 | 122 | 123 | 120 | 118 | 122 | 118 | 118 | 120 | 91.2 | 70.7 | 27.1 | 119 | 122 | 119 | 114 | 110 | 120 | 123 | 101 | 87.2 | 60.1 | 15.1
Cc1[nH]c(/C=C2\C(=O)Nc3ccc([S+](=O)([O-])N(C)c4cccc(Cl)c4)cc32)c(C)c1C(=O)N1CCN(C)CC1 | 118 | 130 | 124 | 119 | 126 | 127 | 119 | 110 | 111 | 76.7 | 0.631 | – | – | – | – | – | – | – | – | – | – | – | – | – | – | – | – | – | – | – | – | – | –
NC(=O)N1c2ccccc2CC(=O)c2ccccc21 | 115 | 116 | 121 | 125 | 124 | 138 | 129 | 128 | 132 | 127 | 134 | – | – | – | – | – | – | – | – | – | – | – | – | – | – | – | – | – | – | – | – | – | –
CCC(=O)O[C@@]1([C@@H](C)C[C@H]2[C@@H]3CCC/4=C/C(=O)/C=C\[C@]4(C)[C@@]3(F)[C@@H](O)C[C@]12C)C(=O)CCl | 118 | 121 | 101 | 86.8 | 79.2 | 73 | 76.9 | 76.9 | 70.2 | 68.6 | 55 | – | – | – | – | – | – | – | – | – | – | – | 134 | 107 | 83.8 | 79.9 | 59.9 | 61.3 | 56.2 | 57 | 54.1 | 51.3 | 38.5
O=C(O)c1ccc2cc(-c3ccc(O)c(C45CC6CC(CC(C6)C4)C5)c3)ccc2c1 | 124 | 119 | 124 | 121 | 121 | 107 | 66.5 | 19.2 | 10.4 | 9.2 | 7.25 | 116 | 123 | 134 | 122 | 117 | 96.9 | 57.1 | 16 | 8.71 | 8.22 | 5.78 | – | – | – | – | – | – | – | – | – | – | –
